Target: T1, P2X7 receptor (IL-1β release from THP-1 cells) (Homo sapiens, UniProt Q99572)
T1 construct: host or cells: THP-1 cells differentiated with LPS and IFN-γ
T1 sequence (Q99572 1-595): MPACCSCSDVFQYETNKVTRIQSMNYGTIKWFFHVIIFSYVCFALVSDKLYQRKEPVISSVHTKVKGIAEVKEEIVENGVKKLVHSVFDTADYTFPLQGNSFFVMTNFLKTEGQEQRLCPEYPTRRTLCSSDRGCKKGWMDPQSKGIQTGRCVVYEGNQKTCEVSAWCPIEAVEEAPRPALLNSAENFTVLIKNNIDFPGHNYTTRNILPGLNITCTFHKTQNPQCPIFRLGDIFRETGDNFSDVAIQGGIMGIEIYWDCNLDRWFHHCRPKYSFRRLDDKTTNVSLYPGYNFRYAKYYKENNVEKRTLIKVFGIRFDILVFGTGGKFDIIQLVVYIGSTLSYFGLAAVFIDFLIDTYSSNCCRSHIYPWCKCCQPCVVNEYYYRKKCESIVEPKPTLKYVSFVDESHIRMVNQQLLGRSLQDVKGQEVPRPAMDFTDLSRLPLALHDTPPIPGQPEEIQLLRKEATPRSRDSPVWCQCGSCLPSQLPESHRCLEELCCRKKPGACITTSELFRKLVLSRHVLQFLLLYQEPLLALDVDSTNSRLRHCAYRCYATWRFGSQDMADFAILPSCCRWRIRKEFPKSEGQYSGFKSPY
Experiment: IL-1β release assay in differentiated THP-1 cells stimulated with BzATP (Example 9)
Format: cell-based
Details: for inhibition at 0.3 µM: 0.3 μM concentration; for inhibition at 0.3 µM / inhibition at 0.1 µM: BzATP 250 uM, read-out: IL-1β % Inhib. @ 0.3 or 0.1 μM; for inhibition at 0.1 µM: 0.1 μM concentration; for IC50: released IL-1β as in Example 9, four parameter logistic fit
Protocol: The cells are then pretreated for 30 minutes with the compound of interest at the appropriate concentration in RPMI media containing 100 IU/mL penicillin, 100 ug/mL streptomycin. […] 30 uL of cell supernatant is then collected and IL-1β levels determined via ELISA (R&D systems Cat. #HSLB50) according to manufacturer's recommendations using the Tecan Safire plate reader. Background adjusted IL-1β levels of drug treated and non-treated cells are used to calculate the percent inhibition.
The compounds set forth in Table 1 were tested for activity in a cellular model as described herein. […] Measurements were made and IC50 values, presented in Table 2, below, were determined by fitting the data to a four parameter logistic equation using GraphPad Prism software (GraphPad Software, Inc). The equation may be expressed by the following formula:
Y=Bottom+(Top−Bottom)/(1+10̂((Log EC50−X)*HillSlope))
Where X is the logarithm of concentration, Y is the response and Y starts at Bottom and goes to Top with a sigmoid shape.

| Compound | inhibition at 0.3 µM | inhibition at 0.1 µM | IC50 |
| --- | --- | --- | --- |
| CC(=O)NCCn1ccc2c(NC(=O)CC3CCCCCC3)cccc2c1=O [Compound 611, N-[2-(2-Acetylamino-ethyl)-1-oxo-1,2-dihydro-isoquinolin-5-yl]-2-cycloheptyl-acetamide] | 51 to 75% |  |  |
| NC(=O)[C@H](Cc1ccccc1)n1ccc2c(NC(=O)CC34CC5CC(CC(C5)C3)C4)cccc2c1=O [Compound 502] |  | 51 to 75% |  |
| C[C@H](C(=O)O)n1ccc2c(NC(=O)CC3CCCCCC3)cccc2c1=O [Compound 607, (R)-2-[5-(2-Cycloheptyl-acetylamino)-1-oxo-1H-isoquinolin-2-yl]-propionic acid] | > 76% |  | 92.1 nM |
| CC1(C)CC(CC(=O)Nc2cccc3c(=O)n([C@@H](C(N)=O)c4ccccc4)ccc23)CC(C)(C)C1 [Compound 593, (R)-2-{1-Oxo-5-[2-(3,3,5,5-tetramethylcyclohexyl)-acetylamino]-1H-isoquinolin-2-yl}-2-phenyl-acetamide] | > 76% |  | 4.09 nM |
| NC(=O)C(Cc1c[nH]cn1)n1ccc2c(NC(=O)CC34CC5CC(CC(C5)C3)C4)cccc2c1=O (centres unmarked) [Compound 514] | > 76% |  | 1.36 nM |
| CC(C)[C@H](C(=O)O)n1ccc2c(NC(=O)CC3CCCCCC3)cccc2c1=O [Compound 610] | > 76% |  | 44.7 nM |
| NC(=O)[C@@H](CC1CCCCC1)n1ccc2c(NC(=O)CC34CC5CC(CC(C5)C3)C4)cccc2c1=O [Compound 513] | > 76% |  | 33.7 nM |
| CC(O)Cn1ccc2c(NC(=O)C3C[C@@H]4CC[C@H]3C4)cccc2c1=O (some centres unmarked) [Compound 567] |  | 26 to 50% |  |
| CC(C)[C@H](C(=O)O)n1ccc2c(NC(=O)CC34CC5CC(CC(C5)C3)C4)cccc2c1=O [Compound 603] | > 76% |  | 22 nM |
| O=C(CC1CCCCC1)Nc1cccc2c(=O)n(C(CO)CO)ccc12 [Compound 550] | 51 to 75% |  | 266 nM |
| C[C@@H](C(N)=O)n1ccc2c(NC(=O)CC3(O)CCCCCC3)cccc2c1=O [Compound 557] | 26 to 50% |  | 355 nM |
| C[C@@H](C(N)=O)n1ccc2c(NC(=O)CC34CC5CC(CC(O)(C5)C3)C4)cccc2c1=O [Compound 574] | 0 to 25% |  | > 1000 nM |
| CC(C)(O)Cn1ccc2c(NC(=O)[C@@]34C[C@@H]5C[C@@H](C[C@@H]3C5)C4)cccc2c1=O [Compound 570] |  | 0 to 25% |  |
| CC(C(N)=O)n1ccc2c(NC(=O)CC34CC5CC(C)(CC(C)(C5)C3)C4)cccc2c1=O (centres unmarked) [Compound 531] | > 76% |  | 4.13 nM |
| CC(C)[C@H](C(=O)NC1CC1)n1ccc2c(NC(=O)CC3CCCCCC3)cccc2c1=O [Compound 595, (R)-2-[5-(2-Cycloheptyl-acetylamino)-1-oxo-1H-isoquinolin-2-yl]-N-cyclopropyl-3-methyl-butyramide] | > 76% |  | 20.7 nM |
| NC(=O)Cn1ccc2c(NC(=O)CC34CC5CC(CC(C5)C3)C4)cccc2c1=O [Compound 509] | > 76% |  | 0.271 nM |
| CC(C)C(CO)n1ccc2c(NC(=O)CC3CCCCCC3)cccc2c1=O (centres unmarked) [Compound 538] | > 76% |  | 1.86 nM |
| CC(C)C[C@H](CO)n1ccc2c(NC(=O)CC3(O)CCCCCC3)cccc2c1=O [Compound 596] | > 76% |  | 5.59 nM |

| Compound | inhibition at 0.3 µM | inhibition at 0.1 µM | IC50 |
| --- | --- | --- | --- |
| C[C@@H](CO)n1ccc2c(NC(=O)CC3CCCCCC3)cccc2c1=O [Compound 605, 2-Cycloheptyl-N-[2-((S)-2-hydroxy-1-methyl-ethyl)-1-oxo-1,2-dihydro-isoquinolin-5-yl]-acetamide] | > 76% |  | 66.5 nM |
| CC(C)C(CO)n1ccc2c(NC(=O)CC34CC5CC(CC(C5)C3)C4)cccc2c1=O (centres unmarked) [Compound 516, 2-Adamantan-1-yl-N-[2-(1-hydroxymethyl-2-methyl-propyl)-1-oxo-1,2-dihydro-isoquinolin-5-yl]-acetamide] | > 76% |  | 0.049 nM |
| CC(C)C[C@H](CO)n1ccc2c(NC(=O)CC3CCCCCC3)cccc2c1=O [Compound 590] | > 76% |  | 8.3 nM |
| CC1(C)CCCC(O)(CC(=O)Nc2cccc3c(=O)n(CCO)ccc23)C1 (centres unmarked) [Compound 547] | 51 to 75% |  | 287 nM |
| CC12CC3CC(C)(C1)CC(CC(=O)Nc1cccc4c(=O)n(CC(N)=O)ccc14)(C3)C2 [Compound 523] | > 76% |  | 1.5 nM |
| CC(C)(CO)n1ccc2c(NC(=O)CC34CC5CC(CC(C5)C3)C4)cccc2c1=O [Compound 613, 2-Adamantan-1-yl-N-[2-(2-hydroxy-1,1-dimethyl-ethyl)-1-oxo-1,2-dihydro-isoquinolin-5-yl]acetamide] | > 76% |  | 3.78 nM |
| O=C(CC1(O)CCCCCC1)Nc1cccc2c(=O)n(C[C@H]3CCCN3)ccc12 [Compound 578, 2-(1-Hydroxy-cycloheptyl)-N-(1-oxo-2-(R)-1-pyrrolidin-2-ylmethyl-1,2-dihydro-isoquinolin-5-yl)-acetamide] | > 76% |  | 111 nM |
| NC(=O)CN1CCc2c(NC(=O)CC34CC5CC(CC(C5)C3)C4)cccc2C1=O [Compound 533] | > 76% |  | 4.79 nM |
| O=C(CC12CC3CC(CC(C3)C1)C2)Nc1cccc2c(=O)n(C[C@H]3CCCN3)ccc12 [Compound 506] | > 76% |  | 1 nM |
| C[C@@H](CO)n1ccc2c(NC(=O)CC34CC5CC(C)(CC(C)(C5)C3)C4)cccc2c1=O [Compound 524] | > 76% |  | 0.204 nM |
| CC1(C)CC(CC(=O)Nc2cccc3c(=O)n(CCO)ccc23)CC(C)(C)C1 [Compound 584, N-[2-(2-Hydroxy-ethyl)-1-oxo-1,2-dihydro-isoquinolin-5-yl]-2-(3,3,5,5-tetramethylcyclohexyl)-acetamide] | > 76% |  | 1.8 nM |
| CC1(C)CCCC(O)(CC(=O)Nc2cccc3c(=O)n(C(CO)CO)ccc23)C1 (centres unmarked) [Compound 553] | 51 to 75% |  | 203 nM |
| O=C(CC1CCCCCC1)Nc1cccc2c(=O)n(C[C@@H]3CCCN3)ccc12 [Compound 577] | > 76% |  |  |
| CC1CNC(CN2CCc3c(NC(=O)CC45CC6CC(CC(C6)C4)C5)cccc3C2=O)CN1 (centres unmarked) [Compound 503] |  | > 76% |  |
| CC(C)C[C@H](CO)n1ccc2c(NC(=O)CC34CC5CC(CC(C5)C3)C4)cccc2c1=O [Compound 585, 2-Adamantan-1-yl-N-[2-((R)-1-hydroxymethyl-3-methyl-butyl)-1-oxo-1,2-dihydro-isoquinolin-5-yl]-acetamide] | > 76% |  | 1.38 nM |
| C[C@@H](C(N)=O)n1ccc2c(NC(=O)CC3(O)CC(C)(C)CC(C)(C)C3)cccc2c1=O [Compound 556] | 51 to 75% |  | 257 nM |
| CC(C)(O)Cn1ccc2c(NC(=O)[C@H]3CC[C@H](C)CC3)cccc2c1=O [Compound 568] |  | 0 to 25% |  |
| O=C(CC12CC3CC(CC(C3)C1)C2)Nc1cccc2c(=O)n(C[C@@H]3CCCN3)ccc12 [Compound 505] | > 76% |  | 0.65 nM |
